Assay: Inhibition of recombinant human SSAO

| SMILES | IC50 [nM] |
| --- | --- |
| NCC(=CF)COc1ccccc1 | 6 |
| NC/C(=C\F)COc1ccccc1 | 19 |
| Cc1ccccc1OC/C(=C/F)CN | 288 |

From BindingDB's records for PubMed 35973549 (Pharmaxis, 2022)
